Among the data in the NIST ThermoML archive (doi:10.1016/j.jct.2016.10.035) are mass density values, retold here.

± gives the expanded uncertainty stated by the source.

As usually defined, the mass density is the mass of a sample divided by its volume.

For this data set the following is noted: 298.15 K; 100 kPa; Crystal; X-ray diffraction.

`O=P([O-])([O-])[O-].O=P([O-])([O-])[O-].O=P([O-])([O-])[O-].[Ca+2].[Ca+2].[Ca+2].[Ca+2].[Ca+2].[OH-]` [hydroxyapatite]: the mass density was determined as 3155 ± 12 kg/m3.
